Data on seven compounds can be found in ChEMBL document CHEMBL1811859, “Second-generation sulfonamide inhibitors of D-glutamic acid-adding enzyme: activity optimisation with conformationally rigid analogues of D-glutamic acid” (Eur J Med Chem, 2011).

Molecules are shown by their SMILES. ≈ marks a conversion by molar mass, not a printed value. Some results are limits rather than exact numbers.

In assay [1] the test system is Staphylococcus aureus. Kind of assay: Antimicrobial activity against methicillin-resistant Staphylococcus aureus ATCC 43300 by broth dilution method. In kind it is functional.
Assay [2] concerns Enterococcus faecium. In words: Antimicrobial activity against Enterococcus faecium ATCC 19434 by broth dilution method. In kind it is functional.
Assay [3] has as its system Pseudomonas aeruginosa. In words: Antimicrobial activity against Pseudomonas aeruginosa ATCC 27853 by broth dilution method. In kind it is functional.
Assay [4] deals with Streptococcus pneumoniae. Kind of assay: Antimicrobial activity against Streptococcus pneumoniae D39 by broth dilution method. The assay is classed as functional.
Assay [5] deals with Listeria innocua. In words: Antimicrobial activity against Listeria innocua ATCC 33090 by broth dilution method. In kind it is functional.
For assay [6], the system named is Escherichia coli. In words: Inhibition of Escherichia coli MurD ligase assessed as residual activity at 1 mM after 30 mins.
Assay [7] concerns Staphylococcus aureus. In words: Antimicrobial activity against Staphylococcus aureus ATCC 25923 by broth dilution method. In kind it is functional.
For assay [8], the system named is Staphylococcus epidermidis. Kind of assay: Antimicrobial activity against Staphylococcus epidermidis ATCC 12228 by broth dilution method. The assay is classed as functional.
Assay [9] deals with Micrococcus luteus. In words: Antimicrobial activity against Micrococcus luteus ATCC 9314 by broth dilution method. In kind it is functional.
In assay [10] the test system is Escherichia coli. Kind of assay: Antimicrobial activity against Escherichia coli ATCC 8739 by broth dilution method. In kind it is functional.
In assay [11] the test system is Streptococcus pneumoniae. In words: Antimicrobial activity against Streptococcus pneumoniae ATCC 33400 by broth dilution method. The assay is classed as functional.
For assay [12], the system named is Klebsiella pneumoniae. In words: Antimicrobial activity against Klebsiella pneumoniae ATCC 13883 by broth dilution method. In kind it is functional.
Assay [13] relates to Citrobacter freundii. Kind of assay: Antimicrobial activity against Citrobacter freundii ATCC 8090 by broth dilution method. In kind it is functional.
A short description of assay [14]: Inhibition of Escherichia coli MurD ligase assessed as addition of D-[3H]glu to UDP-N-acetyl-muramoyl-L-alanine after 30 mins.
For assay [15], the system named is Enterococcus hirae. In words: Antimicrobial activity against Enterococcus hirae ATCC 9790 by broth dilution method. In kind it is functional.
Assay [16] concerns Streptococcus pneumoniae. Kind of assay: Antimicrobial activity against Streptococcus pneumoniae ATCC 49619 by broth dilution method. In kind it is functional.
Assay [17] deals with Proteus mirabilis. Kind of assay: Antimicrobial activity against Proteus mirabilis ATCC 29936 by broth dilution method. In kind it is functional.
In assay [18] the test system is Enterococcus faecalis. In words: Antimicrobial activity against Enterococcus faecalis ATCC 19433 by broth dilution method. In kind it is functional.
The subject of assay [19] is Bacillus subtilis. In words: Antimicrobial activity against Bacillus subtilis ATCC 6633 by broth dilution method. In kind it is functional.
In assay [20] the test system is Staphylococcus aureus. In words: Antimicrobial activity against methicillin-resistant Staphylococcus aureus PL1 by broth dilution method. In kind it is functional.
In assay [21] the test system is Listeria monocytogenes. Kind of assay: Antimicrobial activity against Listeria monocytogenes ATCC 14780 by broth dilution method. The assay is classed as functional.
Assay [22] deals with Enterococcus faecalis. Kind of assay: Antimicrobial activity against Enterococcus faecalis ATCC 29212 by broth dilution method. In kind it is functional.
Assay [23] concerns Escherichia coli. In words: Inhibition of Escherichia coli MurD ligase assessed as residual activity at 500 uM after 30 mins.
Assay [24] is described as follows: Inhibition of Escherichia coli MurD ligase.

With `N#Cc1ccc(COc2ccc3cc(S(=O)(=O)Nc4ccc(C(=O)O)cc4C(=O)O)ccc3c2)c(F)c1`, the MIC in assay [1], in assay [2], in [3], in assay [4], in assay [5] and in [7] was over 512 µg/mL throughout. Further, the MIC in assay [8], in [9], in assay [10], in assay [11], in assay [12] and in assay [13] was over 512 µg/mL throughout. Also, the minimal inhibitory concentration (MIC) in assay [15], in [16], in assay [17], in assay [18], in assay [19] and in assay [20] was over 512 µg/mL in each case. The MIC in assay [21] and in assay [22] was over 512 µg/mL each time. Also, the Activity in assay [6] was found to be 0.79%. In assay [14], the IC50 turned out to be 8.4 µM. Besides, in [14], the Ki came out at 5.8 µM.

Take `CCCCOc1ccc2cc(S(=O)(=O)Nc3ccc(CC(=O)O)cc3)ccc2c1`: the MIC in assay [1] is 256 µg/mL (≈ 619 µM); in assay [2], 512 µg/mL (≈ 1240 µM); in assay [3] it was over 512 µg/mL; in assay [4], over 512 µg/mL; in [5], over 512 µg/mL; in assay [7], 256 µg/mL (≈ 619 µM). Further, the MIC in assay [8] was 256 µg/mL (≈ 619 µM); in assay [9], 512 µg/mL (≈ 1240 µM); in [10], over 512 µg/mL; in [11] it was over 512 µg/mL; in assay [12] it was over 512 µg/mL; in assay [13] it was over 512 µg/mL. In addition, the MIC in assay [15] was 512 µg/mL (≈ 1240 µM); in assay [16], over 512 µg/mL; in [17], over 512 µg/mL; in assay [18], 512 µg/mL (≈ 1240 µM); in assay [19] it was 512 µg/mL (≈ 1240 µM); in assay [20] it was 256 µg/mL (≈ 619 µM). The MIC in [21] was over 512 µg/mL; in assay [22], 256 µg/mL (≈ 619 µM). In addition, in [23], the Activity was 97%.

As to `CCCCOc1ccc2cc(S(=O)(=O)Nc3ccc(O)cc3C(=O)O)ccc2c1`, the MIC is over 512 µg/mL in [1]; 256 µg/mL (≈ 616 µM) in [2]; over 512 µg/mL in [3]; 64 µg/mL (≈ 154 µM) in [4]; over 512 µg/mL in [5]; over 512 µg/mL in assay [7]. Besides, the MIC in assay [8] is over 512 µg/mL; in assay [9], 256 µg/mL (≈ 616 µM); in [10] it was over 512 µg/mL; in assay [11] it was 32 µg/mL (≈ 77 µM); in assay [12] it was over 512 µg/mL; in assay [13] it was over 512 µg/mL. Besides, the minimal inhibitory concentration (MIC) in [15] is 256 µg/mL (≈ 616 µM); in assay [16] it was 64 µg/mL (≈ 154 µM); in assay [17], over 512 µg/mL; in [18], over 512 µg/mL; in assay [19], over 512 µg/mL; in assay [20], over 512 µg/mL. The MIC in assay [21] was over 512 µg/mL; in assay [22], 256 µg/mL (≈ 616 µM). The Activity in assay [23] was 76%.

`CCCCOc1ccc2cc(S(=O)(=O)N[C@@H](CCC(=O)O)C(=O)O)ccc2c1` gave an IC50 in assay [24] of 710 µM.

Regarding `N#Cc1ccc(COc2ccc3cc(S(=O)(=O)Nc4ccc(O)cc4C(=O)O)ccc3c2)c(F)c1`, the MIC in [1], in [2], in assay [3], in assay [4], in [5] and in assay [7] was over 512 µg/mL in each case. For the same compound, the MIC in [8], in [9], in assay [10], in assay [11], in assay [12] and in assay [13] was over 512 µg/mL each time. The MIC in assay [15], in assay [16], in [17], in [18], in [19] and in assay [20] was over 512 µg/mL throughout. Moreover, the minimum inhibitory concentration (MIC) in assay [21] and in [22] was over 512 µg/mL each time. In [14], the IC50 amounted to 46 µM. Further, in assay [14], the Ki was 32 µM. In addition, in [23], the Activity turned out to be 3%.

Turning to `O=C(N/N=C/c1ccc(O)c(O)c1O)c1n[nH]c2ccccc12`, 324 µM corresponded to half-maximal inhibition in assay [24] (IC50).

Turning to `CCCCOc1ccc2cc(S(=O)(=O)Nc3cc(C(=O)O)cc(C(=O)O)c3)ccc2c1`, the MIC in assay [1], in assay [2], in [3], in [4], in [5] and in assay [7] was over 512 µg/mL throughout. In addition, the minimum inhibitory concentration (MIC) in [8], in [9], in [10], in [11], in [12] and in [13] was over 512 µg/mL each time. In addition, the MIC in assay [15], in assay [16], in assay [17], in assay [18], in assay [19] and in [20] was over 512 µg/mL each time. Moreover, the MIC in [21] and in assay [22] was over 512 µg/mL in each case. In addition, the Activity in assay [23] was 70%.
